Source: US9725434B2, “Hydroxy-substituted orexin receptor antagonists” (MERCK SHARP & DOHME CORP., priority 2013, dated 2017)

Columns and labels:
[1] = target: human orexin-1 receptor (hOX1R) (Homo sapiens, UniProt O43613); assay: FLIPR Ca2+ Flux Assay, hOX1R; assay type: cell-based; conditions: CHO cells expressing hOX1R; agonist 70 pM Ala-6,12 orexin-A
Protocol: (§1) Chinese hamster ovary (CHO) cells expressing the human orexin-1 receptor (hOX1R) or the human orexin-2 receptor (hOX2R) were grown in Iscove's modified DMEM containing 2 mM L-glutamine, […], 1% hypoxanthine-thymidine supplement, 100 U/ml penicillin, 100 μg/ml streptomycin and 10% heat-inactivated fetal calf serum (FCS). The cells were seeded at 20,000 cells/well into Becton-Dickinson black 384-well clear bottom sterile plates coated with poly-D-lysine. All reagents were from GIBCO-Invitrogen Corp. The seeded plates were incubated overnight at 37° C. and 5% CO2. Ala-6,12 human orexin-A, used as the agonist, was prepared as a 1 mM stock solution in 1% bovine serum albumin (BSA) and diluted in assay buffer (HBSS containing 20 mM HEPES, 0.1% BSA and 2.5 mM probenecid, pH7.4) for use in the assay at a final concentration of 70 pM. Test compounds were prepared as 10 mM stock solution in DMSO, then diluted in 384-well plates, first in DMSO, then assay buffer.
On the day of the assay, cells were washed 3× with 100 μl assay buffer and then incubated for 60 minutes (37° C., 5% CO2) in 60 μl assay buffer containing 1 μM Fluo-4AM ester, 0.02% pluronic acid, and 1% BSA. The dye loading solution was then aspirated and cells were washed 3× with 100 μl assay buffer. 30 μl of that same buffer was left in each well. Within the Fluorescent Imaging Plate Reader (FLIPR, Molecular Devices), test compounds were added to the plate in a volume of 25 μl, incubated for 5 minutes, and then 25 μl of agonist was added. Fluorescence was measured for each well at 1 second intervals for 5 minutes, and the height of each fluorescence peak was compared to the height of the fluorescence peak induced by 70 pM of Ala-6,12 orexin-A with buffer in place of test compound.

[2] = target: human orexin-2 receptor (hOX2R) (Homo sapiens (Human), UniProt O43614); assay: FLIPR Ca2+ Flux Assay, hOX2R; assay type: cell-based; conditions: CHO cells expressing hOX2R; agonist 70 pM Ala-6,12 orexin-A
Protocol: In a typical experiment the OX1 and OX2 receptor antagonistic activity of the compounds of the present invention was determined in accordance with the following experimental method. For intracellular calcium measurements, Chinese hamster ovary (CHO) cells expressing the rat orexin-1 receptor or the human orexin-2 receptor, are grown in Iscove's modified DMEM containing 2 mM L-glutamine, […], 1% hypoxanthine-thymidine supplement, 100 U/ml penicillin, 100 μg/ml streptomycin and 10% heat-inactivated fetal calf serum (FCS). The cells are seeded at 20,000 cells/well into Becton-Dickinson black 384-well clear bottom sterile plates coated with poly-D-lysine. All reagents were from GIBCO-Invitrogen Corp. The seeded plates are incubated overnight at 37° C. and 5% CO2. Ala-6,12 human orexin-A as the agonist is prepared as a 1 mM stock solution in 1% bovine serum albumin (BSA) and diluted in assay buffer (HBSS containing 20 mM HEPES, 0.1% BSA and 2.5 mM probenecid, pH7.4) for use in the assay at a final concentration of 70 pM. Test compounds are prepared as 10 mM stock solution in DMSO, then diluted in 384-well plates, first in DMSO, then assay buffer. On the day of the assay, cells are washed 3 times with 100 μl assay buffer and then incubated for 60 min (37° C., 5% CO2) in 60 μl assay buffer containing 1 μM Fluo-4AM ester, 0.02% pluronic acid, and 1% BSA. The dye loading solution is then aspirated and cells are washed 3 times with 100 μl assay buffer. 30 μl of that same buffer is left in each well. Within the Fluorescent Imaging Plate Reader (FLIPR, Molecular Devices), test compounds are added to the plate in a volume of 25 μl, incubated for 5 min and finally 25 μl of agonist is added. Fluorescence is measured for each well at 1 second intervals for 5 minutes and the height of each fluorescence peak is compared to the height of the fluorescence peak induced by 70 pM Ala-6,12 orexin-A with buffer in place of antagonist. […] Alternatively, compound potency can be assessed by a radioligand binding assay (described in Bergman et. al. Bioorg. Med. Chem. Lett. 2008, 18, 1425-1430) in which the inhibition constant (Ki) is determined in membranes prepared from CHO cells expressing either the OX1 or OX2 receptor. The intrinsic orexin receptor antagonist activity of a compound which may be used in the present invention may be determined by these assays.
as §1
On the day of the assay, cells were washed 3× with 100 μl assay buffer and then incubated for 60 minutes (37° C., 5% CO2) in 60 μl assay buffer containing 1 μM Fluo-4AM ester, 0.02% pluronic acid, and 1% BSA. The dye loading solution was then aspirated and cells were washed 3× with 100 μl assay buffer.

human orexin-2 receptor (hOX2R), sequence (O43614 whole entry): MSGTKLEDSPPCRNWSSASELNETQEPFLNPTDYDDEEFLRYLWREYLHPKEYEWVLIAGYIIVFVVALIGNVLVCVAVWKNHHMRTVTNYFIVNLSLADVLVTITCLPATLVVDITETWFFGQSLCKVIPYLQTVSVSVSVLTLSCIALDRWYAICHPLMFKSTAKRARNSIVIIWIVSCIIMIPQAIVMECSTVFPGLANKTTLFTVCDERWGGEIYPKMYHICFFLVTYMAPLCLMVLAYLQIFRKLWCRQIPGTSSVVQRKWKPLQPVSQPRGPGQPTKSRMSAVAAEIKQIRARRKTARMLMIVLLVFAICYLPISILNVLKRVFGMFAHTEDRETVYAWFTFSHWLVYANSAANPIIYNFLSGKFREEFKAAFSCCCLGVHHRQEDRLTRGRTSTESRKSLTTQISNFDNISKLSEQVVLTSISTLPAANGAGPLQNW

Row | Structure (SMILES) | IC50 [1] | IC50 [2]
1 | C[C@@H]1CC[C@@H](Oc2cc([C@@](C)(O)C3CC3)ccn2)CN1C(=O)c1ccccc1-n1nccn1 [Example 12, (1S)-1-cyclopropyl-1-(2-{[(3R,6R)-6-methyl-1-{[2-(2H-1,2,3-triazol-2-yl)phenyl]carbonyl}piperidin-3-yl]oxy}pyridin-4-yl)ethanol] | 241 nM | 13 nM
2 | C[C@@H]1CC[C@@H](Oc2cccc(C(C)(C)O)c2)CN1C(=O)c1ccsc1-n1nccn1 [Example 37, 2-(3-{[(3R,6R)-6-Methyl-1-{[2-(2H-1,2,3-triazol-2-yl)thiophen-3-yl]carbonyl}piperidin-3-yl]oxy}phenyl)propan-2-ol] | 10000 nM | 45 nM
3 | C[C@@H]1CC[C@@H](Oc2cc(C3(O)CCC3)ccn2)CN1C(=O)c1ccccc1-n1nccn1 [Example 8, 1-(2-{[(3R,6R)-6-methyl-1-{[2-(2H-1,2,3-triazol-2-yl)phenyl]carbonyl}piperidin-3-yl]oxy}pyridin-4-yl)cyclobutanol] | 1520 nM | 41 nM
4 | C[C@@H]1CC[C@@H](Oc2cccc3c2CC[C@H]3O)CN1C(=O)c1ccccc1-n1nccn1 [Example 25, (1R)-4-{[(3R,6R)-6-Methyl-1-{[2-(2H-1,2,3-triazol-2-yl)phenyl]carbonyl}piperidin-3-yl]oxy}-2,3-dihydro-1H-inden-1-ol] | 7200 nM | 238 nM
5 | C[C@@H]1CC[C@@H](Oc2cccc(C(C)(O)C3CCC3)c2)CN1C(=O)c1ccccc1-n1nccn1 (stereo partly drawn) [Example 17, 1-Cyclobutyl-1-(3-{[(3R,6R)-6-methyl-1-{[2-(2H-1,2,3-triazol-2-yl)phenyl]carbonyl}piperidin-3-yl]oxy}phenyl)ethanol] | 8690 nM | 82 nM
6 | C[C@@H]1CC[C@@H](Oc2cccc(C(C)(O)C(F)F)c2)CN1C(=O)c1ccccc1-n1nccn1 (stereo partly drawn) [Example 36, 1,1-difluoro-2-(3-{[(3R,6R)-6-methyl-1-{[2-(2H-1,2,3-triazol-2-yl)phenyl]carbonyl}piperidin-3-yl]oxy}phenyl)propan-2-ol] | 7280 nM | 18 nM
